Columns and labels:
Type in all cases: in vivo, human
interleukin 2 = assay: Prospective clinical intervention study in CD patients: inflammatory biomarkers (interleukin 2); details: CD patients with thiopurine treatment; 100 mg riboflavin daily for 3 weeks
Protocol: (§1) In a prospective clinical intervention study, 70 CD patients were included and divided into two groups with (active) and without (quiescent) evidence of mucosal inflammation (defined by fecal calprotectin (FC) cut-off value: 200 μg/g). Patients received 100 mg riboflavin daily for 3 weeks. Clinical disease activity (Harvey-Bradshaw Index: HBI), inflammatory biomarkers (including interleukin 2) as well as fecal microbial composition (including pathogenic Enterobacteriaceae including E. coli) were analyzed before and after riboflavin intervention.

[1] = Prospective clinical intervention study in CD patients: clinical disease activity (Harvey-Bradshaw Index); details: 100 mg riboflavin daily for 3 weeks, before vs after
Protocol: as §1

[2] = tested on: Enterobacteriaceae including E. coli; assay: Prospective clinical intervention study in CD patients: fecal microbial composition; details: CD patients with thiopurine treatment; 100 mg riboflavin daily for 3 weeks
Protocol: as §1

Q: Which “proinflammatory cytokine IL2” value (interleukin 2) does the source give for `Cc1cc2nc3c(=O)[nH]c(=O)nc-3n(C[C@H](O)[C@H](O)[C@H](O)CO)c2cc1C` [riboflavin] here?
A: The value was “further reduction”.

Q: And the “clinical disease activity (HBI)” value ([1]; CD patients with mesalazine treatment)?
A: The value was “this was not the case (not as pronounced as)”.

Q: What about the “clinical disease activity (HBI)” value ([1]; CD patients with thiopurine treatment (particularly quiescent disease)) of the same compound?
A: The value was “further reduced clinical disease activity (HBI)”.

Q: And the “Enterobacteriaceae including E. coli (fecal)” value [2]?
A: The value was “further reduction”.

— patent US20220125795A1, “THERAPEUTIC COMBINATIONS AND COMPOSITIONS FOR THE TREATMENT OF INFLAMMATORY BOWEL DISEASE” (RIJKSUNIVERSITEIT GRONINGEN, priority 2019, published 2022)
